Active and inactive are the calls of the source. The calls are words filed in the database; no cut-off is given here.
Key:
K562 [1] = assay: Cell cycle arrest in human K562 cells assessed as accumulation at G2/M phase at 20 nM after 24 hrs by propidium iodide staining-based flow cytometry; format: functional
[2] = Inhibition of tubulin assembly by Woods method
K562 [3] = assay: Cell cycle arrest in human K562 cells assessed as accumulation at G0/G1 phase at 20 nM after 24 hrs by propidium iodide staining-based flow cytometry; format: functional
K562 [4] = assay: Antiproliferative activity against human K562 cells after 5 days by MTT assay; format: functional, cell-based; conditions: Homo sapiens, K562, 120 h
K562 [5] = assay: Cell cycle arrest in human K562 cells assessed as accumulation at S phase at 20 nM after 24 hrs by propidium iodide staining-based flow cytometry; format: functional
[6] = Displacement of [3H]colchicine from tubulin assessed as bound colchicine at […] incubated in dark for 2 hrs by scintillation spectroscopy
HUVEC = assay: Antivascular activity in HUVEC cells assessed as change in cell shape at 1 uM after 1 hr by fluorescent-labeled high molecular weight F-dextran permeability assay; format: functional, cell-based; conditions: Homo sapiens
Vero = assay: Binding affinity to tubulin in african green monkey Vero cells assessed as aberration of microtubule arrangement at 10 uM after 40 mins by immunohistochemistry; format: cell-based; conditions: Chlorocebus sabaeus
[7] = Inhibition of tubulin polymerization assessed as appearance of shorter and ring shaped tubulin by electron microscopy
[8] = Inhibition of tubulin polymerization assessed as appearance of twisted and shorter tubulin by electron microscopy

For `CO/C(=C\c1cc(F)c(OC)c(F)c1)C(=O)c1cc(OC)c(OC)c(OC)c1`, the Activity (K562 [1]) was 55%, the IC50 [2] was 1700 nM and the Activity (K562 [3]) was 30%. For the same compound, the IC50 (K562 [4]) was 360 nM, the Activity (K562 [5]) was 15% and the Activity [6] was 41%. For the same compound, the Activity (HUVEC) was “Active”.
Work on `COc1cc(C(=O)/C=C/c2ccc3c(c2)OCCO3)cc(OC)c1OC` yielded an Activity (K562 [1]) of 50%, an IC50 [2] of 13000 nM and an Activity (K562 [3]) of 27%. The Activity (K562 [5]) was 23%, the Activity [6] was 10% and the Activity (Vero) was “Active”.
`COc1cc(OC)c(/C=C/C(=O)c2cc(OC)c(OC)c(OC)c2)c(OC)c1` showed an Activity (K562 [1]) of 72%, an IC50 [2] of 12000 nM and an Activity (K562 [3]) of 10%. The IC50 (K562 [4]) was 200 nM, the Activity (K562 [5]) was 18% and the Activity [6] was 46%. For the same compound, the Activity (Vero) was “Active”.
For `COc1ccc(/C=C(\C)C(=O)c2cc(OC)c(OC)c(OC)c2)cc1O`, the Activity (K562 [1]) was 83%, the IC50 [2] was 460 nM and the Activity (K562 [3]) was 10%. For the same compound, the Activity (K562 [5]) was 7%, the Activity [6] was 8% and the Activity [7] was “Active”. The Activity (Vero) was “Active” and the Activity (HUVEC) was “Active”.
Compound `COc1ccc(/C=C(\C)C(=O)c2cc(OC)c(OC)c(OC)c2)cc1F` has an Activity (K562 [1]) of 88%, an IC50 [2] of 650 nM and an Activity (K562 [3]) of 3%. For the same compound, the IC50 (K562 [4]) was 2 nM, the Activity (K562 [5]) was 9% and the Activity [6] was 6%. The Activity (Vero) was “Active”.
With `CO/C(=C\c1ccc(OC)c(O)c1)C(=O)c1cc(OC)c(OC)c(OC)c1` the Activity (K562 [1]) was 84%, the IC50 [2] was 510 nM and the Activity (K562 [3]) was 4%. It also gave an IC50 (K562 [4]) of 1.5 nM, an Activity (K562 [5]) of 12% and an Activity [6] of 5%. For the same compound, the Activity (Vero) was “Active” and the Activity (HUVEC) was “Active”.
Work on `COc1ccc(OC)c(C(=O)/C(C)=C/c2ccc(N(C)C)cc2)c1` yielded an Activity (K562 [1]) of 82%, an IC50 [2] of 10000 nM and an Activity (K562 [3]) of 10%. The IC50 (K562 [4]) was 12 nM, the Activity (K562 [5]) was 8% and the Activity [6] was 2%. For the same compound, the Activity (Vero) was “Active”.
For `COc1ccc(/C=C/C(=O)c2ccc(OC)c(OC)c2)c(OC)c1`, the Activity (K562 [1]) was 47%, the IC50 [2] was 18000 nM and the Activity (K562 [3]) was 26%. For the same compound, the IC50 (K562 [4]) was 300 nM, the Activity (K562 [5]) was 27% and the Activity [6] was 42%. The Activity (Vero) was “Active”.
With `CO/C(=C\c1ccc(OC)c(F)c1)C(=O)c1cc(OC)c(OC)c(OC)c1` the Activity (K562 [1]) was 46%, the IC50 [2] was 470 nM and the Activity (K562 [3]) was 41%. The IC50 (K562 [4]) was 3.7 nM, the Activity (K562 [5]) was 13% and the Activity [6] was 8%. For the same compound, the Activity (HUVEC) was “Active”.
In the case of `COc1ccc(/C=C/C(=O)c2cc(OC)c(OC)c(OC)c2)cc1O`, the Activity (K562 [1]) is reported as 76%, the IC50 [2] is reported as 620 nM and the Activity (K562 [3]) is reported as 12%. For the same compound, the Activity [8] was “Active”, the Activity (K562 [5]) was 12% and the Activity [6] was 9%. For the same compound, the Activity (HUVEC) was “Active”.
For `COc1ccc(C(=O)/C(C)=C/c2ccc(OC)c(OP(=O)(O)O)c2)cc1`, the Activity [6] was 12% and the Activity (HUVEC) was “Active”.

From ChEMBL document CHEMBL1152676, “Combretastatin-like chalcones as inhibitors of microtubule polymerization. Part 1: synthesis and biological evaluation of antivascular activity” (Bioorg Med Chem, 2009)
